Results as given in patent US12171763B2, “Methods and compositions comprising a KRASG12C inhibitor and a PD-L1 binding antagonist for treating lung cancer” (Genentech, Inc., priority 2020, dated 2024).
Structures can show the parent of a compound that is named as a salt.

Experiments:
NSCLC = details: patients in clinical studies, cited from earlier work
[1] = tested on: KRAS^G12C-positive over KRAS^G12C-negative cancer cell lines; assay: Growth inhibition of KRAS G12C-positive versus KRAS G12C-negative cancer cell lines; type: cell-based
[2] = tested on: KRAS^G12C-positive cancer cell lines; assay: Mechanism of action studies in KRAS G12C-positive cancer cell lines; type: cell-based
[3] = tested on: KRAS^G12C-positive lung tumors; assay: Nonclinical xenograft models of KRAS G12C-positive lung tumors; type: in vivo
[4] = Risks associated with administration of Compound 1; details: in vivo
[5] = tested on: CT26.KRAS12C-Clone #12:B2G9 Syngeneic Colorectal (CRC) Tumors; assay: Anti-tumor efficacy in CT26.KRAS12C-Clone #12:B2G9 syngeneic colorectal (CRC) tumor model; type: in vivo, Balb/c mice
Method: The combination of the adipate salt of Compound 1 with anti-PD-L1 monoclonal antibody (mAb) was assessed in the CRISPR-engineered CT26.KRAS12C-Clone #12:B2G9 mouse colorectal (CRC) syngeneic tumor model.
Test Agents. The adipate salt of Compound 1 was in a solution at a concentration of 7.5 mg/mL in 0.5% (w/v) methylcellulose. Anti-PD-L1 mAbs (Mu IgG1 anti-PD-L1 (6E11); hereafter referred to as anti-PD-L1) was in a solution in Histidine Buffer #8 ([…] Histidine Acetate, […] Sucrose, 0.02% Tween 20™, pH 5.5). The oral-dosed vehicle control was 0.5% (w/v) methylcellulose. Test agents were stored in a refrigerator set to maintain a temperature range of 4° C.-7° C. All treatments and vehicle control dosing solutions were prepared once a week for three weeks.
Female Balb/c mice that were 9-10 weeks old were obtained from Charles River Laboratory (Hollister, CA) weighing an average of 22 g. Only animals that appeared to be healthy and that were free of obvious abnormalities were used for the study. Mus musculus colon carcinoma CT26 cells were obtained from the American Type Culture Collection (Rockville, MD). CT26.KRAS12C-Clone #12:B2G9 is derived from CRISPR knock-in of G12C in CT26 cells. Cells were cultured in vitro, harvested in log-phase growth, and resuspended in Hank's Balanced Salt Solution (HBSS) containing Matrigel (BD Biosciences; San Jose, CA) at a 1:1 ratio. The cells were then implanted subcutaneously in the right lateral thorax of 70 Balb/c mice. Each mouse was injected with 0.1×10^6 cells in a volume of 100 μL. Tumors were monitored until they reached a mean tumor volume of 159-228 mm^3. Mice were distributed into six groups based on tumor volumes with n=8 mice per group. The mean tumor volume across all six groups was 198 mm^3 at the initiation of dosing.
[…] The MC vehicle and adipate salt of Compound 1 were administered on QD orally (PO) by gavage for 21 days in a volume of 100 μL. The isotope control mAbs and anti-PD-L1 mAbs were administered intravenously (IV) at 10 mg/kg for the first dose, and then dosed intraperitoneally (IP) at 5 mg/kg for subsequent doses on a twice weekly (BIW) schedule.
Tumor sizes and mouse body weights were recorded twice weekly over the course of the study. […]
Dose Preparation and Tumor and Body Weight Measurement. All concentrations were calculated based on a mean body weight of 25 g for the […] mouse strain used in this study. Tumor volumes were measured in two dimensions (length and width) using Ultra Cal-IV calipers (model 54-10-111; Fred V. Fowler Co.; Newton, MA) and analyzed using Excel, version 14.2.5 (Microsoft Corporation; Redmond WA). The tumor volume was calculated with the following formula: Tumor size(mm^3)=(longer measurement×shorter measurement^2)×0.5 […]

## C=CC(=O)N1CCN(c2nc(=O)n(-c3c(C)ccnc3C(C)C)c3nc(-c4c(O)cccc4F)c(F)cc23)[C@@H](C)C1 [AMG 510, sotorasib]
NSCLC; overall
  treatment-related adverse events: 56.6 % of patients
NSCLC
  Grade 3 events occurring in more than one patient: ALT increase, diarrhea, anemia, AST increase, and alkaline phosphatase increase
  treatment-related Grade 3 or 4 event: 11.6 % of patients
  treatment-related serious adverse event: 1.6 % of patients

## C=CC(=O)N1CCN(c2nc(OC[C@@H]3CCCN3C)nc3c(F)c(-c4nc(N)cc(C)c4C(F)(F)F)c(Cl)cc23)[C@@H](C)C1 (atropisomer, axis not shown) [Compound 1, 1-((S)-4-((R)-7-(6-amino-4-methyl-3-(trifluoromethyl)pyridin-2-yl)-6-chloro-8-fluoro-2-(((S)-1-methylpyrrolidin-2-yl)methoxy)quinazolin-4-yl)-3-methylpiperazin-1-yl)prop-2-en-1-one]
[1]
  selectivity in growth inhibition: over 20,000 fold
[2]
  apoptosis induction: apoptosis induction is observed
  downstream MAPK pathway components (pERK, pS6) and KRAS target genes (DUSP6, SPRY4): inhibited
[3]
  single-agent activity on tumor growth: inhibits tumor growth
[4]
  risks associated with administration: diarrhea, nausea, vomiting, oral mucosal irritation, minimal to mild transaminase elevation, and phototoxicity

## C=CC(=O)N1CCN(c2nc(OC[C@@H]3CCCN3C)nc3c(F)c(-c4nc(N)cc(C)c4C(F)(F)F)c(Cl)cc23)[C@@H](C)C1 (atropisomer, axis not shown) [adipate salt Compound 1, 1-((S)-4-((R)-7-(6-amino-4-methyl-3-(trifluoromethyl)pyridin-2-yl)-6-chloro-8-fluoro-2-(((S)-1-methylpyrrolidin-2-yl)methoxy)quinazolin-4-yl)-3-methylpiperazin-1-yl)prop-2-en-1-one]
[5]; fraction of mice, Compound 1 adipate 30 mg/kg PO QD, anti-PD-L1 10/5 mg/kg BIW
  partial responses (PRs): ⅜
[5]; number of mice of 8, CR = 100% decrease in tumor volume, Compound 1 adipate 30 mg/kg, anti-PD-L1 10/5 mg/kg
  CR (complete response): 0
[5]; number of mice of 8, PR = >50% decrease from initial tumor volume, Compound 1 adipate 30 mg/kg, anti-PD-L1 10/5 mg/kg
  PR (partial response): 3
[5]; tumor growth inhibition based on AUC, relative to vehicle, Compound 1 adipate 30 mg/kg PO QD, anti-PD-L1 10 mg/kg IV first dose then 5 mg/kg IP BIW
  % TGI (estimated): 123%
